Data reported in PMC6511888, “Synthesis, Biological Evaluation, and Molecular Modeling Studies of New Thiadiazole Derivatives as Potent P2X7 Receptor Inhibitors” (Frontiers in Chemistry, 2019).

Legend:
P2Y4R = biological target: T1, P2Y4R (Mus musculus, UniProt Q9JJS7); assay: MRS4062-induced [Ca2+]i shifts in mice peritoneal macrophages; assay type: cell-based; settings: concentration not given
T1 construct: endogenous in cells; host or cells: mouse peritoneal macrophages
Method: (§1) Mouse peritoneal macrophages, PC12 cells, J774 cells, and HEPG2 cells were analyzed by fluorescence microscopy to measure the intracellular Ca^2+ concentrations ([Ca^2+]i). Cells were incubated with 2 μM Fura-2-AM (Molecular Probes) for 30 min, and the [Ca^2+]i mobilization was measured in the F340/F380 ratios with a FlexStation 3 multimode microplate reader (Molecular Devices). Cells were plated in translucent 96-well plates (BD Falcon) for 15 min and then washed and incubated in a saline solution with 150 NaCl, 5 KCl, 1 MgCl2, 1 CaCl2, and 10 HEPES (pH 7.4) for 30 min before measurements of [Ca^2+]i. The Ca^2+ influx was induced by stimulating cells with P2 receptor agonists. P2 receptor antagonists were added 10 min before P2 receptor agonist addition. […] Ionomycin was considered a positive control, and the other recordings were normalized in relation to the AUC.

P2X2R = biological target: T2, P2X2R (Rattus norvegicus, UniProt P49653); assay: ATP-induced [Ca2+]i shifts in PC12 cells; assay type: cell-based
T2 construct: endogenous in cells; host or cells: PC12 cells
T2 sequence (P49653 1-472): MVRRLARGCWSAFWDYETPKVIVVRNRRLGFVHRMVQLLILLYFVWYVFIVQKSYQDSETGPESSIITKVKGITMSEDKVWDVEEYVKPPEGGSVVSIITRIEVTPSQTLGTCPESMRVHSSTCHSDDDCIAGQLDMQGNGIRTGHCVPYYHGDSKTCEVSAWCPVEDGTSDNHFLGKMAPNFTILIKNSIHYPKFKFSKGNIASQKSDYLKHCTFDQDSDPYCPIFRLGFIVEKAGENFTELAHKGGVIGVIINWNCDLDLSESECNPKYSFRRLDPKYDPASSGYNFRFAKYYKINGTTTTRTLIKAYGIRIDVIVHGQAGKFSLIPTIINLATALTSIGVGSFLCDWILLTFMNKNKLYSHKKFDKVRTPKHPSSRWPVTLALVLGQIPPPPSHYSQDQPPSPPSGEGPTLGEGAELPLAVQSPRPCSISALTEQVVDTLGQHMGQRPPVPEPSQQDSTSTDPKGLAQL
Method: as §1

P2X1R = biological target: T3, P2X1R (Mus musculus, UniProt P51576); assay: β,γ-meATP-induced intracellular Ca2+ mobilization in J774 cells; assay type: cell-based; settings: 100 μM
T3 construct: endogenous in cells; host or cells: J774 cells
T3 sequence (P51576 1-399): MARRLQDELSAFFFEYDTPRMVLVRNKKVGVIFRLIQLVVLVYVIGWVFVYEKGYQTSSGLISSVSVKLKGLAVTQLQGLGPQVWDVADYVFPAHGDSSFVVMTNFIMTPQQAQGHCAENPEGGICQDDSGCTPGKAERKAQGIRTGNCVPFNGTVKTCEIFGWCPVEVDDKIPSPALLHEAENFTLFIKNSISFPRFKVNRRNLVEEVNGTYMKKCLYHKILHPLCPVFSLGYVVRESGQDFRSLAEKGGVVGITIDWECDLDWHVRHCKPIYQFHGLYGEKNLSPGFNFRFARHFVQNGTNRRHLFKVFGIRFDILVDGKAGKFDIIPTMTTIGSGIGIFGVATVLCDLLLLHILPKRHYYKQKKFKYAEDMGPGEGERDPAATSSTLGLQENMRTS
Method: as §1

P2Y11R = assay: NAADP-induced [Ca2+]i shifts in mouse peritoneal macrophages; assay type: cell-based; settings: concentration not given
Method: as §1

P2Y13R = biological target: T4, P2Y13R (Homo sapiens, UniProt Q9BPV8); assay: ADPβS-induced [Ca2+]i shifts in HEP2G cells; assay type: cell-based; settings: concentration not given
T4 construct: endogenous in cells; host or cells: HEP2G (HEPG2) cells
T4 sequence (Q9BPV8 1-354): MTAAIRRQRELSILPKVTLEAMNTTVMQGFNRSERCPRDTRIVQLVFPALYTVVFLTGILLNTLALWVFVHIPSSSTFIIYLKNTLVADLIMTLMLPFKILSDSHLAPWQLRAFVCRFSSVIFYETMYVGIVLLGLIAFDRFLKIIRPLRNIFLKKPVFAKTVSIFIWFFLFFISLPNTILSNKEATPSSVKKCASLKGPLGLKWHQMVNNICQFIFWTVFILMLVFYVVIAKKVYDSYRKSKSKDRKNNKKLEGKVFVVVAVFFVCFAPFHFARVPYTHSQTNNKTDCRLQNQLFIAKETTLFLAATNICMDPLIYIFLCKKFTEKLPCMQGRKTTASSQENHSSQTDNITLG
Method: as §1

P2Y6R = biological target: T5, P2Y6R (Mus musculus, UniProt Q9ERK9); assay: UDPβS-activated [Ca2+]i shifts in mouse peritoneal macrophages; assay type: cell-based; settings: concentration not given
T5 construct: endogenous in cells; host or cells: mouse peritoneal macrophages
T5 sequence (Q9ERK9 whole entry): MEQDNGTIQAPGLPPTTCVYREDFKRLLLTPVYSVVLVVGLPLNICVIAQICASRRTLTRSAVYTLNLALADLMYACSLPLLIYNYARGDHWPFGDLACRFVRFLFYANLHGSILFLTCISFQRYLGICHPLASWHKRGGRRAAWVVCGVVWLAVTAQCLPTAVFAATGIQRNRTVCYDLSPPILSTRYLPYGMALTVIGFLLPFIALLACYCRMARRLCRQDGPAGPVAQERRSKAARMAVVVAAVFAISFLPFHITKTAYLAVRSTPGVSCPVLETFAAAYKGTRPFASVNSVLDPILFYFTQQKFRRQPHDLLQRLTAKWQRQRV
Method: as §1

P2Y1R = biological target: T6, P2Y1R (Mus musculus, UniProt P49650); assay: ADP-induced [Ca2+]i shifts in mouse peritoneal macrophages; assay type: cell-based; settings: concentration not given
T6 construct: endogenous in cells; host or cells: mouse peritoneal macrophages
T6 sequence (P49650 whole entry): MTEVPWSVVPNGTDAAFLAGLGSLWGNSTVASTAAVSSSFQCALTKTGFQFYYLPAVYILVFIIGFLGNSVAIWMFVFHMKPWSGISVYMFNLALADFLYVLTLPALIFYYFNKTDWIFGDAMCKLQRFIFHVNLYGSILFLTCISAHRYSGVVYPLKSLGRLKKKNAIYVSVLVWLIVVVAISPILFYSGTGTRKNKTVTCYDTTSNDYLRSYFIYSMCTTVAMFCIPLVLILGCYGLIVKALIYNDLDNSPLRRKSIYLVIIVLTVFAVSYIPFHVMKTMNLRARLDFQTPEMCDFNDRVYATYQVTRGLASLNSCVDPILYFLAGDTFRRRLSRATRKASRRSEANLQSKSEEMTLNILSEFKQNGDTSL
Method: as §1

P2Y2R = biological target: T7, P2Y2R (Mus musculus, UniProt P35383); assay: 2-S-UTP-activated [Ca2+]i shifts in mouse peritoneal macrophages; assay type: cell-based; settings: concentration not given
T7 construct: endogenous in cells; host or cells: mouse peritoneal macrophages
T7 sequence (P35383 whole entry): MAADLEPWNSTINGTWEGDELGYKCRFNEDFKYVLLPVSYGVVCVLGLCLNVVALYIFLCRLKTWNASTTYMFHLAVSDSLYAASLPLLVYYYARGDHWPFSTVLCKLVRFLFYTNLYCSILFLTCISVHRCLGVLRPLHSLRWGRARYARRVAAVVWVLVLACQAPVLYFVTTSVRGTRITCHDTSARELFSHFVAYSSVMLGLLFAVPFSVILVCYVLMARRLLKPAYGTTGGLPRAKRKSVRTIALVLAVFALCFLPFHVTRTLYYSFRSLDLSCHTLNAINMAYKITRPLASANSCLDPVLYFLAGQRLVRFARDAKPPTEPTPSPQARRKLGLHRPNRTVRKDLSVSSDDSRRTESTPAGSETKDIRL
Method: as §1

Caco-2 cells = assay: Caco-2 cell permeability; assay type: in vitro ADME; settings: compared to the controls and 9f and 11c
Method: Corning® Costar® Transwell plates (Sigma-Aldrich, St. Louis, MO, USA) were used for seeding Caco-2 cells at 3 × 10^5 cells/well bathed with DMEM supplemented with 10% FSB according to Faria and collaborator in 2018 (Faria et al., [2018]). This culture was maintained for up to 21 days in a humidified incubator at 37°C and 5% CO2. Thiadiazole analog, vinblastine (poor permeability control), and propranolol (high permeability control) stock solutions, all at a concentration of 100 mM, were prepared in Hanks' balanced salt solution (HBSS) containing 25 mM HEPES at pH 7.4 with 0.5% (v/v) DMSO. Transport buffer (0.3 ml) was added to each well to equilibrate the cells with the transport buffer. A 24-well enhanced recovery plate containing 1 ml of transport buffer (pH 7.4) was substituted for the feeder tray. The transport buffer in the apical wells was removed, and 0.3 ml of a solution containing thiadiazoles 9b, 9c, 9f, or 11c; vinblastine; or propranolol was added. Then, the cells were replaced for incubation for 60 min. Lucifer yellow concentrations in the donor and acceptor wells were measured in the last of this incubation. Lucifer yellow was measured using an M5 plate reader ([…]) at an excitation wavelength of 485 nm and an emission wavelength of 530 nm.

T1 sequence (Q9JJS7 whole entry): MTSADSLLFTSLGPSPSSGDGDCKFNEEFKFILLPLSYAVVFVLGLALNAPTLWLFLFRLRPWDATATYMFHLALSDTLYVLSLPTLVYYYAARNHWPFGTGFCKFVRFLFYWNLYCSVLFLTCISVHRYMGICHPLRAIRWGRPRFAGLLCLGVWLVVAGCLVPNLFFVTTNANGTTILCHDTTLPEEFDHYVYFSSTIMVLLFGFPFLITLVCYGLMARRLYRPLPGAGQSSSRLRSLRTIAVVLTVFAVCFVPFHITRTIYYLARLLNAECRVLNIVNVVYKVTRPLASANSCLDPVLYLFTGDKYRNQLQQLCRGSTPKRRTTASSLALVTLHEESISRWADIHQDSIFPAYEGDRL

Row | Effect on MRS4062-induced [Ca2+]i shifts (P2Y4R) | Effect on ATP-induced [Ca2+]i shifts (P2X2R; 100 μM) | Effect on β,γ-meATP-induced intracellular Ca2+ mobilization (P2X1R) | Effect on ADPβS-induced [Ca2+]i shifts (P2Y13R) | Effect on UDPβS-activated [Ca2+]i shifts (P2Y6R) | Effect on ADP-induced [Ca2+]i shifts (P2Y1R) | Effect on 2-S-UTP-activated [Ca2+]i shifts (P2Y2R) | Effect on ATP-induced [Ca2+]i shifts (P2X2R; 10 μM) | Permeability in Caco-2 cells (in words) (Caco-2 cells) | Compound | Effect on NAADP-induced [Ca2+]i shifts (P2Y11R)
1 | did not inhibit | did not inhibit | did not reduce | did not inhibit | did not show inhibitory activity | did not inhibit | did not have inhibitory effects | – | – | CCOC(=O)c1cnn(-c2nnc(-c3ccccc3Cl)s2)c1N [Compound 9f] | did not inhibit
2 | did not inhibit | – | – | did not inhibit | did not show inhibitory activity | did not inhibit | did not have inhibitory effects | did not inhibit | – | COc1ccc(CC(=O)NC(NC(=NC#N)Nc2cccc3ncccc23)C(C)(C)C)cc1OC (centres unmarked) [Compound A740003, N-(1-{[(cyanoimino)(5-quinolinylamino)methyl]amino}-2,2-dimethylpropyl)-2-(3,4-dimethoxyphenyl)acetamide] | did not inhibit
3 | – | – | – | – | – | – | – | – | moderate permeability | N#Cc1cnn(-c2nnc(-c3ccc(F)cc3)s2)c1N [Compound 9c] | –
4 | – | – | – | – | – | – | – | – | moderate permeability | N#Cc1cnn(-c2nnc(-c3ccccc3Cl)s2)c1N [Compound 9b] | –
